Where two headings read alike, the source gives them in different places.
Tests used:
[1] = test system: Leucoagaricus gongylophorus; experiment: Fungistatic inhibition: fungal inoculations exposed to wells containing botanical oils, mycelial growth toward the well vs unexposed controls; assay type: cell-based; conditions: 21 days exposure to well containing oil; mycelial growth toward well vs unexposed control
[2] = test system: Leucoagaricus gongylophorus; conditions: for Growth Evaluation: 30-day incubation, median of five replicates
Procedure: A similar lab trial was designed and performed to evaluate the fungicidal capacities of these botanical oils in addition to their fungistatic properties against L. gongylophorus. For this test, the plant oils were incorporated directly into the fungal growth medium at different concentrations (0.1, 1, and 5%). The growth of the fungus on this medium was evaluated after a 30-day incubation period, based on the quantity and density of the mycelium, according to the following pattern. Growth was characterized by the following measure: 5+ indicated growth identical to the control treatment (medium alone, with no plant oil treatment), or 100% growth; 4+ indicated growth equivalent to 80% of the control treatment growth; 3+ indicated 60%; 2+ indicated 40%; 1+ indicated 20%; and 0 indicated total elimination of the fungal colony.

SMILES: COC(=O)c1ccccc1O [Methyl Salicylate]
- Inhibition (%) of fungal growth (fungistatic) [1]: 100%
- fungal mortality [2]: 100%
- Growth Evaluation ([2]; concentration 0.1% in medium): 3+ (3+ indicated 60%)
- Growth Evaluation ([2]; concentration 1% in medium): 0
- Growth Evaluation ([2]; concentration 5% in medium): 0

From patent publication US10251402B2, “Methods and compositions for controlling leaf-cutting ant populations” (ISCA Technologies, Inc., priority 2015, dated 2019)
